Results published in article PMC11284787, “Ligand-Directed Labeling of the Adenosine A1 Receptor in Living Cells” (Journal of Medicinal Chemistry, 2024).

Assay: Fluorescence correlation spectroscopy in solution (HBSS)
Format: physicochemical
Description: The suitability of probe 11 for use with FCS was initially tested by recording 10 × 10 s trace reads in solution (100 nM in HBSS) (Figure S4). […] A 488 nm […] laser was used to excite SNAP-AF488 and the emission […] The pinhole diameter (1 Airy Unit; 1.1 μm optical slice), laser power and gain was kept constant in all the experiments. Images were acquired as 16-bit depth, 1024x1024 pixel resolution with a line averaging of 8 (or 2) and a pixel dwell time 4.12 µs (set to 5). Images were either processed in Zeiss ZEN 2 (blue edition) or FIJI (ImageJ) version 2.0.0 software, and linear adjustments to the brightness and contrast have been applied equally across all the images. To obtain membrane intensity values, regions of interest were drawn by hand around regions of cell membranes in FIJI (ImageJ)10 version 2.0.0 software. Fluorescence Correlation Spectroscopy. […] After that time, cells were washed 3x with warm HBSS over the course of 20 min, followed by the addition of 300 µL HBSS, left to cool to 24 OC and used in Fluorescence Correlation Spectroscopy (FCS) studies. […] For solution-based reads 10 x 10s trace measurements were taken within 200 µL sample with the confocal observation volume placed 200 µm above the coverslip. For apical membrane reads, 3 x 30s trace measurements at ~0.5 kW/cm2 laser power were taken on the apical membrane with its position determined as the peak of a point intensity S9 page 10: Z-scan utilising an argon 488 nm laser excitation, at ~0.5kW/cm2 laser power, detecting […] The placement was lowered by 0.2 µm to account for the optical chromatic offset between the 488 nm and 633 nm detection previously determined for our microscope set-up. Autocorrelation curves (AC) were constructed from fluorescence fluctuation traces and analysed within Zen Black (2012) software. […] Fluorescence fluctuation traces were reanalysed with Photon Counting Histogram analysis to determine the average molecular brightness of detected species. […]

For `CCCCn1c(=O)c2[nH]c(C34CCC(C(=O)NCCNC(=O)CCNC(=O)c5ccc(OC(=O)CCCCC[N+]6=C(/C=C/C=C/C=C7/N(C)c8ccc(S(=O)(=O)O)cc8C7(C)C)C(C)(C)c7cc(S(=O)(=O)[O-])ccc76)c(F)c5)(CC3)CC4)nc2n(CCCC)c1=O` [Compound 11, 1-(6-(4-((3-((2-(4-(1,3-Dibutyl-2,6-dioxo-2,3,6,7-tetrahydro-1H-purin-8-yl)bicyclo[2.2.2]octane-1-carboxamido)ethyl)amino)-3-oxopropyl)carbamoyl)-2-fluorophenoxy)-6-oxohexyl)-3,3-dimethyl-2-((1E,3E)-5-((E)-1,3,3-trimethyl-5-sulfoindolin-2-ylidene)penta-1,3-dien-1-yl)-3H-indol-1-ium-5-sulfonate], the “dwell time in solution (FCS, 3D diffusion model)” value (100 nM in HBSS) was 117.6 ± 17.6 μs, the “diffusion coefficient, D, in solution” value (100 nM in HBSS, calibrated with Cy5) was 142.7 ± 17.3 μm^2/s and the “PCH analysis, state in solution” value (1-component fit, HBSS) was “single species with no aggregation”.
